According to ChEMBL document CHEMBL3779897, “Novel quinoline-derived mTOR inhibitors with remarkable enzymatic and cellular activities: design, synthesis and biological evaluation” (Medchemcomm, 2016):
Active and inactive are the calls of the source. The calls are words filed in the database; no cut-off is given here.

Legend:
cells [1] = conditions: Homo sapiens, HCT-116, 72 h
cells [2] = conditions: Homo sapiens, PC-3, 72 h
MCF7 [3] = test: cells; conditions: Homo sapiens, MCF7, 72 h
[4] = target: T1, Serine/threonine-protein kinase mTOR (Homo sapiens, UniProt P42345); test: Inhibition of human mTOR using ULight-4E-BP1 peptide as substrate after 1 hr by Lance ultra assay
[5] = target: T2, Phosphatidylinositol 4,5-bisphosphate 3-kinase catalytic subunit alpha isoform (Homo sapiens, UniProt P42336); test: Inhibition of human recombinant PI3Kalpha using PIP2 as substrate after 1 hr by Kinase-Glo luminescent assay
[6] = target: T3, Phosphatidylinositol 4,5-bisphosphate 3-kinase catalytic subunit beta isoform (Homo sapiens, UniProt P42338); test: Inhibition of PI3Kbeta (unknown origin) after 1 hr by ADP-Glo luminescent assay
Target sequence in this assay (P42338 whole entry, canonical isoform): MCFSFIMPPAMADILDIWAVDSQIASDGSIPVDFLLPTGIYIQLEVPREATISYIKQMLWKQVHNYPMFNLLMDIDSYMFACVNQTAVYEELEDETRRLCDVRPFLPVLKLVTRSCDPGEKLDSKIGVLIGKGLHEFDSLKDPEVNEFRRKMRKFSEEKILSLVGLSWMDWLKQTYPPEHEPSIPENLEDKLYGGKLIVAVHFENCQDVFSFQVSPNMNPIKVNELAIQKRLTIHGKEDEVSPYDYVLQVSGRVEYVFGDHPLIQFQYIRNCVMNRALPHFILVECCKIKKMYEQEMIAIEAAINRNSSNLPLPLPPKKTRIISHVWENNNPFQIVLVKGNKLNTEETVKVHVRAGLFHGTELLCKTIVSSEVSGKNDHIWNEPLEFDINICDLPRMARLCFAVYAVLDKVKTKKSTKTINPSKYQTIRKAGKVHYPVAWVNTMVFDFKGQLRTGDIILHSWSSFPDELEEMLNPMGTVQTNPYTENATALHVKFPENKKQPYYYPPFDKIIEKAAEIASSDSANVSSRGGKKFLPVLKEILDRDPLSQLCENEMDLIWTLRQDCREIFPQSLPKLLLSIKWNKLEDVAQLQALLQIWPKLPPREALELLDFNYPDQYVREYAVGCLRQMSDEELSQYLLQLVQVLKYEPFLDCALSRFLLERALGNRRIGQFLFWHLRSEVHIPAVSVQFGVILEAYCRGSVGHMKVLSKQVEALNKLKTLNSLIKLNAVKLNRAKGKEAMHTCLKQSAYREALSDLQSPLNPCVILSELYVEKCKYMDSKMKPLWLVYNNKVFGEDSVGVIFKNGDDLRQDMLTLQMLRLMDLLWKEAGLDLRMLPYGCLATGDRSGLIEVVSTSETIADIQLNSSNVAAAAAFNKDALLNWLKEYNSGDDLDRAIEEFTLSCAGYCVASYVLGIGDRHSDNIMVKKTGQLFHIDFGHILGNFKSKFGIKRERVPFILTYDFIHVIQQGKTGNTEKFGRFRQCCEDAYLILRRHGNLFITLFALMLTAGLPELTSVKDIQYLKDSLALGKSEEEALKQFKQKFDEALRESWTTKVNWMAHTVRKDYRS

[7] = target: T4, Phosphatidylinositol 4,5-bisphosphate 3-kinase catalytic subunit gamma isoform (Homo sapiens, UniProt P48736); test: Inhibition of human PI3Kgamma after 1 hr by ADP-Glo luminescent assay
Target sequence in this assay (P48736 whole entry, canonical isoform): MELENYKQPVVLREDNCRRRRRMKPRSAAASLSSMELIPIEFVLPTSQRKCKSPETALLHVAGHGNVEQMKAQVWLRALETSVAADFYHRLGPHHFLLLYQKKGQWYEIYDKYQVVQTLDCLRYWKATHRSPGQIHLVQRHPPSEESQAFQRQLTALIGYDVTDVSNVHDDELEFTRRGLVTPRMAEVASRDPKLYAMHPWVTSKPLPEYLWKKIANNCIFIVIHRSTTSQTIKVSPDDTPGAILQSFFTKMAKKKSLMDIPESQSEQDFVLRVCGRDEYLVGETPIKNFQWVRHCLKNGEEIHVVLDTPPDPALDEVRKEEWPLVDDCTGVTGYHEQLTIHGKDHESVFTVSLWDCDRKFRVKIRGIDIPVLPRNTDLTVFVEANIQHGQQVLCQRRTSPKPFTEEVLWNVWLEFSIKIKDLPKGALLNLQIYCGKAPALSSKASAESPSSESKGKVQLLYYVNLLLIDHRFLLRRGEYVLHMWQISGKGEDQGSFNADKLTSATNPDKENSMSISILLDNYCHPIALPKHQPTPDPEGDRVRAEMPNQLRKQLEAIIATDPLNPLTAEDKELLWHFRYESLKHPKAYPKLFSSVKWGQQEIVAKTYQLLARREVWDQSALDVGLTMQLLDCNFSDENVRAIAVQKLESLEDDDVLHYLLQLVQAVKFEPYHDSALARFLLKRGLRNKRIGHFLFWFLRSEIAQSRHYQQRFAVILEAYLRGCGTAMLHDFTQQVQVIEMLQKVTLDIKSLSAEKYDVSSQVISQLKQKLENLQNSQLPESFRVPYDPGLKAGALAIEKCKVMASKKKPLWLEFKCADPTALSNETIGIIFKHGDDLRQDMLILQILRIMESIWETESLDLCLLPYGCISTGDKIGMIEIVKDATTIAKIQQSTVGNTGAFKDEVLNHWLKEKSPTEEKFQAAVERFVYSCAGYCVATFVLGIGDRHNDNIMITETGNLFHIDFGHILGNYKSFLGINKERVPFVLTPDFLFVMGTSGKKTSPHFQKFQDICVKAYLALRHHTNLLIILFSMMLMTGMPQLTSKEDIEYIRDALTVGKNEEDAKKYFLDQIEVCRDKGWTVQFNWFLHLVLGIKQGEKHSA

[8] = target: T5, Phosphatidylinositol 4,5-bisphosphate 3-kinase catalytic subunit delta isoform (Homo sapiens, UniProt O00329); test: Inhibition of PI3Kdelta (unknown origin) after 1 hr by ADP-Glo luminescent assay
T5 sequence (O00329 whole entry): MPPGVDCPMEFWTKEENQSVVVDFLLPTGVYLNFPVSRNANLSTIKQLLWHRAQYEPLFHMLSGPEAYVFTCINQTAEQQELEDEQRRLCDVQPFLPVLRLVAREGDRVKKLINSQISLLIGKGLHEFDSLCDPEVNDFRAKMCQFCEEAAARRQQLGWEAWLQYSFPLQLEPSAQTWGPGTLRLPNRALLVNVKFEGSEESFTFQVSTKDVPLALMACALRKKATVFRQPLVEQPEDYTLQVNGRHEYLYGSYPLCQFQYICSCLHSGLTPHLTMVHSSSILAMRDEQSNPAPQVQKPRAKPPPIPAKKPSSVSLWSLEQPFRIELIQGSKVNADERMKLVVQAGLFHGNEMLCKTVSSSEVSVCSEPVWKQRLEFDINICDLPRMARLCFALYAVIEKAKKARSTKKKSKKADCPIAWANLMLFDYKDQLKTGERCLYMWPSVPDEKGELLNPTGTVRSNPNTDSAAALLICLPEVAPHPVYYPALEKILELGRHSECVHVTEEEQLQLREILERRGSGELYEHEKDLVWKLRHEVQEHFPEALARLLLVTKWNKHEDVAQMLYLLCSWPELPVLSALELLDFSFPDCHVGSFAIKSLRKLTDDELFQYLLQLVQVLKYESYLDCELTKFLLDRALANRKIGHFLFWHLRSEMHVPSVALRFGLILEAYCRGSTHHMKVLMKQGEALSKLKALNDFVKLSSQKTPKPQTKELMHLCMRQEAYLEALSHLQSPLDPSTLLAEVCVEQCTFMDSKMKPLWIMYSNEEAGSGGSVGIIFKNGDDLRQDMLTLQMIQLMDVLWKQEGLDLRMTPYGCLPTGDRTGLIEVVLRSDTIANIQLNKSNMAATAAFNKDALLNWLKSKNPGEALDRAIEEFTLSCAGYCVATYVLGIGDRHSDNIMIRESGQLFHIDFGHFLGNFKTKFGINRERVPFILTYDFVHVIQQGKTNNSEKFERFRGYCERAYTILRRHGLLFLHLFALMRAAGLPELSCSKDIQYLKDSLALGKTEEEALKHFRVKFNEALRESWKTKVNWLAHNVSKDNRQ

mTORC1 (Homo sapiens) [9] = target: T6, mTORC1 (Homo sapiens) (UniProt P42345+Q8N122+Q9BVC4); test: Inhibition of mTORC1 in human MCF7 cells assessed as downregulation of S6 Ser235 phosphorylation at 0.5 uM after 2 hrs by Western blot analysis; format: cell-based
MCF7 [10] = test: Inhibition of mTORC2 in human MCF7 cells assessed as downregulation of Akt Ser473 phosphorylation at 0.5 uM after 2 hrs by Western blot analysis; format: cell-based
mTORC1 (Homo sapiens) [11] = target: T6, mTORC1 (Homo sapiens); test: Inhibition of mTORC1 in human MCF7 cells assessed as downregulation of S6 Ser235 phosphorylation at 0.1 uM after 2 hrs by Western blot analysis; format: cell-based
MCF7 [12] = test: Inhibition of mTORC2 in human MCF7 cells assessed as downregulation of Akt Ser473 phosphorylation at 0.1 uM after 2 hrs by Western blot analysis; format: cell-based
[13] = target: T1, Serine/threonine-protein kinase mTOR; test: Inhibition of human mTOR at 3000 nM using ULight-4E-BP1 peptide as substrate after 1 hr by Lance ultra assay
Liver microsome = test: Stability in rat liver microsomes after 30 mins; format: ADME; conditions: 0.5 h
[14] = Stability in simulated gastric fluid after 45 mins; format: ADME; conditions: simulated gi fluid, 0.75 h
[15] = Stability in simulated intestinal fluid after 45 mins; format: ADME; conditions: simulated gi fluid, 0.75 h
[16] = target: T2, Phosphatidylinositol 4,5-bisphosphate 3-kinase catalytic subunit alpha isoform; test: Inhibition of human recombinant PI3Kalpha using PIP2 as substrate at 1 uM after 1 hr by Kinase-Glo luminescent assay
[17] = target: T3, Phosphatidylinositol 4,5-bisphosphate 3-kinase catalytic subunit beta isoform; test: Inhibition of PI3Kbeta (unknown origin) at 1 uM after 1 hr by ADP-Glo luminescent assay
Target sequence in this assay (P42338 whole entry, looked up, canonical isoform): as the sequence (P42338 whole entry, canonical isoform) above

[18] = target: T4, Phosphatidylinositol 4,5-bisphosphate 3-kinase catalytic subunit gamma isoform; test: Inhibition of human PI3Kgamma at 1 uM after 1 hr by ADP-Glo luminescent assay
Target sequence in this assay (P48736 whole entry, looked up, canonical isoform): as the sequence (P48736 whole entry, canonical isoform) above

[19] = target: T7, Phosphatidylinositol 4,5-bisphosphate 3-kinase catalytic subunit delta isoform (Homo sapiens) (UniProt O00329); test: Inhibition of PI3Kdelta (unknown origin) at 1 uM after 1 hr by ADP-Glo luminescent assay
T7 sequence (whole entry): T5 sequence (O00329 whole entry)

T2 sequence (P42336 whole entry, canonical isoform): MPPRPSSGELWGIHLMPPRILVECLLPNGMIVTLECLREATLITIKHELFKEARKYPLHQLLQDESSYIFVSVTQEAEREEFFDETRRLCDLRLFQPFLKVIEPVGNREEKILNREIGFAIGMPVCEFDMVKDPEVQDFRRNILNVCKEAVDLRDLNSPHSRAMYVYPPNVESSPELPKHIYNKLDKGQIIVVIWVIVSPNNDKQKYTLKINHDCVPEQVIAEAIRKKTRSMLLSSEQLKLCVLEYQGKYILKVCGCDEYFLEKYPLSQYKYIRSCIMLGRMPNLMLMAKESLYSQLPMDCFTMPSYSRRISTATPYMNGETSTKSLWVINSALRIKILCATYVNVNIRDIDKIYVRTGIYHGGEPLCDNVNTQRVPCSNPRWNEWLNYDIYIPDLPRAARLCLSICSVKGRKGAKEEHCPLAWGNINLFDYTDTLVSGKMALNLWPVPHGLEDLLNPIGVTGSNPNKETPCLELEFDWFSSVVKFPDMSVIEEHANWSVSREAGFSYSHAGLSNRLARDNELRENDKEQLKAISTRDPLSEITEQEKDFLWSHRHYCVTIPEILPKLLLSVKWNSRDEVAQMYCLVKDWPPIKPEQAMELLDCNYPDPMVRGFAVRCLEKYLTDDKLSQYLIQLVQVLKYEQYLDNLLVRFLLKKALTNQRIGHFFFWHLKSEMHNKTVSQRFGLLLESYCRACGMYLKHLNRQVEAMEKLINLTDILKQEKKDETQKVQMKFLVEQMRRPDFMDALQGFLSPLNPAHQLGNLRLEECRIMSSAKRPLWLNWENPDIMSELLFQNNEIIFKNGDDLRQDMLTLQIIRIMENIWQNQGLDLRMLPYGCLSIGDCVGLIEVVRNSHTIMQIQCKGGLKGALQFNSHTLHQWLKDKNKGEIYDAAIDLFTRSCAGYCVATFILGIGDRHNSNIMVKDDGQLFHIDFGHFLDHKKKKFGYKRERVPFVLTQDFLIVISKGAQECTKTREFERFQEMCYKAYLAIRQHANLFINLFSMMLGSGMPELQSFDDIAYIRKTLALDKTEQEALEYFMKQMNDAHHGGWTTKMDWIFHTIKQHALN
T6 sequence (Q8N122 whole entry, looked up, other chains not shown): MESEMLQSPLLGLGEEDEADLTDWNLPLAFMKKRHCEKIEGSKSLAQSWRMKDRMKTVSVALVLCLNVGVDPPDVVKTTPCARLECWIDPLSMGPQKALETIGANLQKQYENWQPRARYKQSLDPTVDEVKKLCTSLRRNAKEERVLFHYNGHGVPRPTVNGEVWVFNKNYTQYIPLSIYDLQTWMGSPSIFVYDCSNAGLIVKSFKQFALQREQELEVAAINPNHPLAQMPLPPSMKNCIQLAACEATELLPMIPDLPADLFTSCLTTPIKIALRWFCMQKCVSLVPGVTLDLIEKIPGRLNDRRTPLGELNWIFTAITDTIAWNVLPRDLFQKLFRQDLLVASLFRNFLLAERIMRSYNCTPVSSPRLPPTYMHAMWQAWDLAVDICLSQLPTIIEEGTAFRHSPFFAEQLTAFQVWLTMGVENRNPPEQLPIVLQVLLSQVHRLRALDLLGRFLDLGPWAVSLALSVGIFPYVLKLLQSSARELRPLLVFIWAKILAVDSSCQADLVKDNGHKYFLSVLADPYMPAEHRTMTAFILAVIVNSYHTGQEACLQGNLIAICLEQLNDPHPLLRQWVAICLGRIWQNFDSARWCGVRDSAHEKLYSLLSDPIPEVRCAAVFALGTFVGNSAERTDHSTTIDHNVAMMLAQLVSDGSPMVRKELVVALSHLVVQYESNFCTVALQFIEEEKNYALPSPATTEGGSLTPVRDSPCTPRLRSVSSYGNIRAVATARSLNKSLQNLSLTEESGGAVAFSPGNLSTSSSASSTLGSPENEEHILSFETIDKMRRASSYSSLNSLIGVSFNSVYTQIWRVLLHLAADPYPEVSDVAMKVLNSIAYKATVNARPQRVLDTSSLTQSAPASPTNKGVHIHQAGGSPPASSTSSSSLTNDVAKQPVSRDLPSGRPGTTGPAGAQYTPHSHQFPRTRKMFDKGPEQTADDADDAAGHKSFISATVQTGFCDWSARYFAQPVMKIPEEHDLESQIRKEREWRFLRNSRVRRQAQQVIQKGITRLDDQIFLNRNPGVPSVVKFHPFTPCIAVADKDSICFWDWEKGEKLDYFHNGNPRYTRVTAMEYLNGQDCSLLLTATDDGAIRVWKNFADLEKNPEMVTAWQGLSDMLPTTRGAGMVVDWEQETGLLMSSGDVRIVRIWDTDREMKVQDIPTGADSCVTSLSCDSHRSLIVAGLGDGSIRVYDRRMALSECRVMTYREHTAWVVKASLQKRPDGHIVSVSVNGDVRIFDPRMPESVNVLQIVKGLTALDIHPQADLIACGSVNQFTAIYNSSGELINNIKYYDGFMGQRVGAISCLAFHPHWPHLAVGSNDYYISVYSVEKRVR
T6 sequence (Q9BVC4 whole entry, looked up, other chains not shown): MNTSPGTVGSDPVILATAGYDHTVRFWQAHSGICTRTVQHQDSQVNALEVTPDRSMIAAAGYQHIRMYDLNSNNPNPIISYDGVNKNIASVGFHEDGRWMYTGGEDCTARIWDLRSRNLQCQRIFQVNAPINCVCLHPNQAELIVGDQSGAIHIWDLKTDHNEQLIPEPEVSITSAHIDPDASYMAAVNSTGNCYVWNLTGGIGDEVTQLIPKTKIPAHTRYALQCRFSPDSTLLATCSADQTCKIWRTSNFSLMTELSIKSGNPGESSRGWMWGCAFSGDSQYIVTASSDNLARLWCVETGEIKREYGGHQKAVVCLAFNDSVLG

Row | Compound | IC50 (cells [1]) [nM] | IC50 (cells [2]) [nM] | IC50 (MCF7 [3]) [nM] | also measured
1 | CC(C)(C#N)c1ccc(Nc2c(N(S(C)(=O)=O)S(C)(=O)=O)cnc3ccc(-c4cnc5ccccc5c4)cc23)cc1 | > 10000 | > 10000 | – | –
2 | CC(=O)N1CCN(c2ccc(Nc3c(NC(=O)C(C)(C)C)cnc4ccc(-c5cnc6ccccc6c5)cc34)cc2C(F)(F)F)CC1 | > 10000 | > 10000 | 790 | –
3 | CC(C)(C)C(=O)Nc1cnc2ccc(-c3cnc4ccccc4c3)cc2c1Nc1ccc(C(C)(C)C#N)cc1 | > 10000 | > 10000 | – | –
4 | CC(=O)Nc1cnc2ccc(-c3cnc4ccccc4c3)cc2c1Nc1ccc(N2CCN(S(C)(=O)=O)CC2)c(C(F)(F)F)c1 | 430 | 190 | 60 | –
5 | CC(=O)Nc1cnc2ccc(-c3cnc4ccccc4c3)cc2c1Nc1ccc(C(F)(F)F)cc1 | > 10000 | > 10000 | – | IC50 [4]: > 3000 nM
6 | Cn1c(=O)n(-c2ccc(C(C)(C)C#N)cc2)c2c3cc(-c4cnc5ccccc5c4)ccc3ncc21 [DACTOLISIB] | 140 | 190 | – | –
7 | Nc1cnc2ccc(-c3cnc4ccccc4c3)cc2c1Nc1ccc(N2CCNCC2)c(C(F)(F)F)c1 | 1610 | 3440 | 470 | –
8 | CC(C)(C)C(=O)Nc1cnc2ccc(-c3cnc4ccccc4c3)cc2c1Nc1ccc(N2CCNCC2)c(C(F)(F)F)c1 | 640 | 1050 | 300 | –
9 | CC(C)(C#N)c1ccc(Nc2c(NS(C)(=O)=O)cnc3ccc(-c4cnc5ccccc5c4)cc23)cc1 | > 10000 | > 10000 | – | –
10 | CC(=O)Nc1cnc2ccc(-c3cnc4ccccc4c3)cc2c1Nc1ccc(N2CCN(C(C)=O)CC2)c(C(F)(F)F)c1 | 110 | 170 | 40 | IC50 [4]: 30 nM; IC50 [5]: 1500 nM; IC50 [6]: > 5000 nM; IC50 [7]: 502 nM; IC50 [8]: 2080 nM; Activity (mTORC1 (Homo sapiens) [9]): Active; Activity (MCF7 [10]): Active; Activity (mTORC1 (Homo sapiens) [11]): Active; Activity (MCF7 [12]): Active
11 | CC(C)(C#N)c1ccc(Nc2c(NC(=O)C(F)(F)F)cnc3ccc(-c4cnc5ccccc5c4)cc23)cc1 | > 10000 | > 10000 | 1360 | inhibition [13]: 92%
12 | CC(=O)Nc1cnc2ccc(-c3cnc4ccccc4c3)cc2c1Nc1ccc(N2CCNCC2)c(C(F)(F)F)c1.Cl | 360 | 500 | 110 | Stability (Liver microsome): Stable; Stability [14]: Stable; Stability [15]: Stable; IC50 [4]: 22 nM; inhibition [16]: 42.1%; inhibition [17]: 1%; inhibition [18]: 47.3%; inhibition [19]: 34.9%
13 | CC(=O)Nc1cnc2ccc(-c3cnc4ccccc4c3)cc2c1Nc1ccc(C(C)(C)C#N)cc1 | 3950 | 2560 | 440 | –
14 | CC(=O)Nc1cnc2ccc(-c3cnc4ccccc4c3)cc2c1Nc1ccc(C#N)cc1 | > 10000 | > 10000 | – | IC50 [4]: > 3000 nM
15 | COc1cc(Nc2c(NC(C)=O)cnc3ccc(-c4cnc5ccccc5c4)cc23)cc(OC)c1 | > 10000 | > 10000 | – | IC50 [4]: > 3000 nM
16 | CS(=O)(=O)Nc1cnc2ccc(-c3cnc4ccccc4c3)cc2c1Nc1ccc(N2CCNCC2)c(C(F)(F)F)c1 | 1450 | 5420 | 1110 | –
17 | O=C(Nc1cnc2ccc(-c3cnc4ccccc4c3)cc2c1Nc1ccc(N2CCNCC2)c(C(F)(F)F)c1)C(F)(F)F | 1240 | 3820 | 320 | –
